According to patent publication US8431593B2, “Heteroaryl amide derivatives” (H. Lundbeck A/S, priority 2006, dated 2013):

Biological target: T1, P2X7 receptor (Homo sapiens, UniProt Q99572)
T1 construct: host or cells: SH-SY5Y
T1 sequence (Q99572 1-595): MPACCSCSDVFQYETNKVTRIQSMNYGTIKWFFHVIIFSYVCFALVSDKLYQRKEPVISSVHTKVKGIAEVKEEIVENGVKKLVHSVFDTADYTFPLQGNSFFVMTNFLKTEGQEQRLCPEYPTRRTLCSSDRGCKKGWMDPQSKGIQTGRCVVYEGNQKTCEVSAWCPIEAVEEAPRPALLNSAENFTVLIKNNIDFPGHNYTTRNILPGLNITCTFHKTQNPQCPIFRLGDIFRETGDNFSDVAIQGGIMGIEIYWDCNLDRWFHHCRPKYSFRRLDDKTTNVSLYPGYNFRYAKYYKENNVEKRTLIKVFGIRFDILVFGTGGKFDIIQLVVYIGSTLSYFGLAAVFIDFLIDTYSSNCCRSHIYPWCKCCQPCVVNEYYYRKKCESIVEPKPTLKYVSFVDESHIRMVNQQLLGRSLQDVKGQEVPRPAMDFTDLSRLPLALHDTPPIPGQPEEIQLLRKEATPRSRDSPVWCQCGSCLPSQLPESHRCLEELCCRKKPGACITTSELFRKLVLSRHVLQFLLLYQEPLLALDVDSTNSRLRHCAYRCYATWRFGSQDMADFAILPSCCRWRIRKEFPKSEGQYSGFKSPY
Assay: P2X7 calcium mobilization assay, high throughput, antagonist activity (Example 4A)
Format: cell-based
Details: not given
Method in brief: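 Antagonism was measured as calcium fluorescence (FLIPR Tetra) in cells seeded one day earlier at 100,000/well, loaded with dye for 1 h and exposed to compound for 1 h at room temperature before agonist. Peak RFU, minus the no-agonist background, was referenced to the mean of the agonist wells.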

SMILES	IC50 [µM]
O=C(NCC12CC3CC(CC(C3)C1)C2)c1cccc2nc(CNCCN3CCOCC3)cn12 [Compound 125, N-(adamantan-1-ylmethyl)-2-{[(2-morpholin-4-ylethyl)amino]methyl}imi-dazo[1,2-a]pyridine-5-carboxamide]	< 2
COCCN(C)Cc1cn2c(C(=O)NCC34CC5CC(CC(C5)C3)C4)cccc2n1 [Compound 133, N-(adamantan-1-ylmethyl)-2-{[(2-methoxyethyl)(meth-yl)amino]methyl}imi-dazo[1,2-a]pyridine-5-carboxamide]	< 2

Same assay, conditions: 50% decrease in the fluorescence response of cells exposed to 80 μM 2′(3′)-O-(4-benzoyl-benzoyl)adenosine 5′-triphosphate; Example 4A; read-out: IC50

IC50 [µM]	SMILES
< 2	CC1(C)[C@H]2CC[C@@H](CNC(=O)c3cccc4nc(C(=O)N5CCC(F)(F)CC5)cn34)[C@@H]1C2 [Compound 485, 2-[(4,4-difluoropiperidin-1-yl)carbonyl]-N-{[(1S,2R,5S)-6,6-dimethylbicyclo[3.1.1]hept-2-yl]methyl} imidazo[1,2-a]pyridine-5-carboxamide]
< 2	CCN(CC)C(=O)C1CCCN(C(=O)c2cn3c(C(=O)NC[C@@H]4CC[C@H]5C[C@@H]4C5(C)C)cccc3n2)C1 (stereo partly drawn) [Compound 456, 2-{[3-(diethylcarbamoyl)piperidin-1-yl]carbonyl}-N-{[(1S,2R,5S)-6,6-dimethylbicyclo[3.1.1]hept-2-yl]methyl}imidazo[1,2-a]pyridine-5-carboxamide]
< 2	CCCCN(CC)C(=O)c1cn2c(C(=O)NC[C@@H]3CC[C@H]4C[C@@H]3C4(C)C)cccc2n1 [Compound 475, 2-N-butyl-5-N-{[(1S,2R,5S)-6,6-dimethylbicyclo[3.1.1]hept-2-yl]methyl}-2-N-ethylimidazo[1,2-a]pyridine-2,5-dicarboxamide]
< 2	CC(C)[C@@H]1CN(C(=O)c2cn3c(C(=O)NCC45CC6CC(CC(C6)C4)C5)cccc3n2)CCN1 [Compound 614, N-(adamantan-1-ylmethyl)-2-{[(3R)-3-isopropylpiperazin-1-yl]carbonyl}imidazo[1,2-a]pyridine-5-carboxamide]
< 2	O=C(NCC12CC3CC(CC(C3)C1)C2)c1cccc2nc(CC(=O)N3CCSCC3)cn12 [Compound 536, N-(adamantan-1-ylmethyl)-2-(2-oxo-2-thiomorpholin-4-ylethyl)imidazo[1,2-a]pyridine-5-carboxamide]

Same assay, conditions: 50% decrease in the fluorescence response of cells exposed to 80 μM of 2′(3′)-O-(4-benzoyl-benzoyl)adenosine 5′-triphosphate; Example 4A; read-out: IC50

IC50 [µM]	SMILES
< 2	NCC1CCCCN1C(=O)c1cn2c(C(=O)NCC34CC5CC(CC(C5)C3)C4)cccc2n1 (stereo not drawn) [Compound 632, N-(adamantan-1-ylmethyl)-2-{[2-(aminomethyl)piperidin-1-yl]carbonyl}imidazo[1,2-a]pyridine-5-carboxamide]
< 2	CC(C)N[C@@H]1CCN(C(=O)c2cn3c(NC(=O)CC45CC6CC(CC(C6)C4)C5)cccc3n2)C1 (stereo in doubt) [Compound 743, 2-adamantan-1-yl-N-(2-{[3-(isopropylamino)pyrrolidin-1-yl]carbonyl}imidazo[1,2-a]pyridin-5-yl)acetamide]
< 2	COC(=O)C(Cc1cn2c(C(=O)NCC34CC5CC(CC(C5)C3)C4)cccc2n1)c1ccccn1 (stereo not drawn) [Compound 758, methyl 3-{5-[(adamantan-1-ylmethyl)carbamoyl]imidazo[1,2-a]pyridin-2-yl}-2-pyridin-2-ylpropanoate]
< 2	O=C(NCC12CC3CC(CC(C3)C1)C2)c1cccc2nc(Cn3nnc(-c4cccnc4)n3)cn12 [Compound 813, N-(adamantan-1-ylmethyl)-2-[(5-pyridin-3-yl-2H-tetrazol-2-yl)methyl] imidazo[1,2-a] pyridine-5-carboxamide]

Same assay, conditions: 50% decrease in the fluorescence response of cells exposed to 80 μM of 2′(3′)-O-(4-benzoyl-benzoyl)adenosine 5′-triphosphate; determined as in Example 4A; read-out: IC50

IC50 [µM]	SMILES
< 2	Cc1ccc(C2(CNC(=O)c3cccc4nc(CC(=O)N5CCC[C@@H](N)C5)cn34)CCCCC2)cn1 [Compound 948, 2-{2-[(3R)-3-amino-piperidin-1-yl]-2-oxoethyl}-N-{[1-(6-methylpyridin-3-yl)cyclohexyl]methyl} imidazo[1,2-a] pyridine-5-carboxamide]
< 2	CC(C)(C)CCNC(=O)Cc1cn2c(C(=O)NCC3(c4ccc(C(F)(F)F)cc4)CCCCC3)cccc2n1 [Compound 883, 2-{2-[(3,3-dimethylbutyl)amino]-2-oxoethyl}-N-({1-[4-(trifluoromethyl)phenyl]cyclohexyl}methyl) imidazo[1,2-a] pyridine-5-carboxamide]
< 2	CCOC(=O)C(CC1CC1)c1cn2c(C(=O)NCC34CC5CC(CC(C5)C3)C4)cccc2n1 (stereo not drawn) [Compound 1001, ethyl 2-{5-[(adamantan-1-ylmethyl)carbamoyl]imidazo[1,2-a]pyridin-2-yl}-3-cyclopropylpropanoate]
< 2	COC1CCN(C(=O)Cc2cn3c(C(=O)NCC4(c5ccc(C(F)(F)F)cc5)CCCCC4)cccc3n2)CC1 [Compound 896, 2-[2-(4-methoxypiperidin-1 yl)-2-oxoethyl]-N-({1-[4-(trifluoromethyl)phenyl]cyclohexyl}methyl) imidazo[1,2-a] pyridine-5-carboxamide]

Same assay, conditions: P2X7 calcium mobilization, Example 4A; 50% decrease in the fluorescence response of cells exposed to 80 μM of (2′(3′)-O-(4-benzoyl-benzoyl)adenosine 5′-triphosephate); read-out: IC50

IC50 [µM]	SMILES
< 2	O=C(NCC1(c2ccc(C(F)(F)F)cc2)CCCCC1)c1cccc2nc(CN3CCCC3)cn12 [Compound 1044, 2-(pyrrolidin-1-ylmethyl)-N-({1-[4-(trifluoromethyl)phenyl]cyclohexyl}methyl) imidazo[1,2-a] pyridine-5-carboxamide]

Same assay, conditions: SH-SY5Y cells; 50% decrease in fluorescence response to 80 μM BzATP; read-out: IC50

IC50 [µM]	SMILES
< 2	NC(=O)C1CCCN(C(=O)Cc2cn3c(C(=O)NCC45CC6CC(CC(C6)C4)C5)cccc3n2)C1 (stereo not drawn) [Compound 50, N-(adamantan-1-ylmethyl)-2-[2-(3-carbamoylpiperidin-1-yl)-2-oxoethyl]imidazo[1,2-a]pyridine-5-carboxamide]
< 2	O=C(Cc1cn2c(C(=O)NCC34CC5CC(CC(C5)C3)C4)cccc2n1)NC1CCCC1 [Compound 153, N-(adamantan-1-ylmethyl)-2-[2-(cyclopentylamino)-2-oxoethyl]imidazo[1,2-a]pyridine-5-carboxamide]
< 2	C[C@@H]1CN(C(=O)Cc2cn3c(C(=O)NCC45CC6CC(CC(C6)C4)C5)cccc3n2)CCN1 [Compound 114, N-(adamantan-1-ylmethyl)-2-{2-[(3R)-3-methylpiperazin-1-yl]-2-oxoethyl}imidazo[1,2-a]pyridine-5-carboxamide]
< 2	O=C1CN(C(=O)c2cn3c(C(=O)NCC45CC6CC(CC(C6)C4)C5)cccc3n2)CCN1 [Compound 99, N-(adamantan-1-ylmethyl)-2-[(3-oxopiperazin-1-yl)carbonyl]imidazo[1,2-a]pyridine-5-carboxamide]
< 2	O=CN1CCN(C(=O)Cc2cn3c(C(=O)NCC45CC6CC(CC(C6)C4)C5)cccc3n2)CC1 [Compound 167, N-(adamantan-1-ylmethyl)-2-[2-(4-formylpiperazin-1-yl)-2-oxoethyl]imidazo[1,2-a]pyridine-5-carboxamide]
< 2	CN(C(=O)Cc1cn2c(C(=O)NCC34CC5CC(CC(C5)C3)C4)cccc2n1)C1CCOC1 (stereo not drawn) [Compound 37, N-(adamantan-1-ylmethyl)-2-{2-[methyl(tetrahydrofuran-3-yl)amino]-2-oxoethyl}imidazo[1,2-a]pyridine-5-carboxamide]
< 2	NC(=O)[C@H]1CCC[C@H]1NC(=O)Cc1cn2c(C(=O)NCC34CC5CC(CC(C5)C3)C4)cccc2n1 [Compound 161, N-(adamantan-1-ylmethyl)-2-(2-{[(1R,2S)-2-carbamoylcyclo-pentyl]amino}-2-oxoethyl)imidazo[1,2-a]pyridine-5-carboxamide]
< 2	CN(CCNS(C)(=O)=O)C(=O)Cc1cn2c(C(=O)NCC34CC5CC(CC(C5)C3)C4)cccc2n1 [Compound 45, N-(adamantan-1-ylmethyl)-2-[2-(methyl{2-[(methyl-sulfonyl)amino]eth-yl}amino)-2-oxoethyl]imidazo[1,2-a]pyridine-5-carboxamide]

Same assay, conditions: fluorescence response of cells exposed to 80 μM 2′(3′)-O-(4-benzoyl-benzoyl)adenosine 5′-triphosphate; Example 4A; read-out: IC50

IC50 [µM]	SMILES
< 2	CCCC(=O)NC1CCN(C(=O)c2cn3c(NC(=O)CC45CC6CC(CC(C6)C4)C5)cccc3n2)CC1 [Compound 409, N-[1-({5-[(adamantan-1-ylacetyl)amino]imidazo[1,2-a]pyridin-2-yl}carbonyl)piperidin-4-yl]butanamide]
< 2	O=C(O)c1cccn(Cc2cn3c(C(=O)NCC45CC6CC(CC(C6)C4)C5)cccc3n2)c1=O [Compound 351, 1-({5-[(adamantan-1-ylmethyl)carbamoyl]imidazo[1,2-a]pyridin-2-yl}methyl)-2-oxo-1,2-dihydropyridine-3-carboxylic acid]
< 2	NCCSCc1cn2c(C(=O)NCC34CC5CC(CC(C5)C3)C4)cccc2n1 [Compound 266, N-(adamantan-1-ylmethyl)-2-{[(2-aminoethyl)thio]methyl}imidazo[1,2-a]pyridine-5-carboxamide]
